Experimental data from patent US8008299B2, “Urotensin II receptor antagonists” (Janssen Pharmaceutica, N.V., priority 2007, dated 2011).
pIC50, pKi: −log10 of the molar value. Read-outs that look alike come from different tables or passages of the source.

Columns and labels:
[1] = molecular target: T1, rat GPR14 (U-II receptor) (Rattus norvegicus, UniProt P49684); test: Rat UII Calcium Mobilization FLIPR Assay; format: cell-based; settings: CHO cells transfected with rat GPR14; antagonist activity after 5 min incubation vs agonist (Ac)-CFWK(2-NaI)C-NH2 at 1 nM
T1 construct: expressed in transfected cells
T1 sequence (P49684 1-386): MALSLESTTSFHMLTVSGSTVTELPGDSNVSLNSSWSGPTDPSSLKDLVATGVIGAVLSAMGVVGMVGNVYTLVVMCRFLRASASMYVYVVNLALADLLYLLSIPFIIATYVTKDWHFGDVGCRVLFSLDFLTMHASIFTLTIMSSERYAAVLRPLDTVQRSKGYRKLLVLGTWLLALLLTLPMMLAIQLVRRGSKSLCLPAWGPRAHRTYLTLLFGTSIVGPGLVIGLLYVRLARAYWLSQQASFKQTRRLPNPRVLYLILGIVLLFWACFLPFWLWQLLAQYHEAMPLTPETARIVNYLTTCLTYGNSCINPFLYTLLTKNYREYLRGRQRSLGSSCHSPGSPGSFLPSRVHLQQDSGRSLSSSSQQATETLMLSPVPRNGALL
Summary of the method: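 CHO cells stably expressing rat U-II receptor, seeded 24 h before assay, were loaded with FLIPR calcium dye in HBSS/20 mM HEPES/0.1% BSA/2.5 mM probenecid, pH 7.4, for 1 h at 37° C. Calcium mobilization then read by FLIPR at 23° C.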

[2] = molecular target: T2, Human UII (U-II receptor) in 6D9 human rhabdomyosarcoma cells (Homo sapiens, UniProt Q9UKP6); test: Human UII Calcium Mobilization Assay; format: cell-based; settings: 6D9 human rhabdomyosarcoma cells, FLIPR TETRA, average; read-out: Human UII Ca+ Mobilization Average IC50
T2 construct: 6D9: isolated by dilution subcloning of RMS13 cells, ATCC® Number: CRL-2061; host or cells: 6D9 human rhabdomyosarcoma cells (subclone of RMS13)
T2 sequence (Q9UKP6 1-389): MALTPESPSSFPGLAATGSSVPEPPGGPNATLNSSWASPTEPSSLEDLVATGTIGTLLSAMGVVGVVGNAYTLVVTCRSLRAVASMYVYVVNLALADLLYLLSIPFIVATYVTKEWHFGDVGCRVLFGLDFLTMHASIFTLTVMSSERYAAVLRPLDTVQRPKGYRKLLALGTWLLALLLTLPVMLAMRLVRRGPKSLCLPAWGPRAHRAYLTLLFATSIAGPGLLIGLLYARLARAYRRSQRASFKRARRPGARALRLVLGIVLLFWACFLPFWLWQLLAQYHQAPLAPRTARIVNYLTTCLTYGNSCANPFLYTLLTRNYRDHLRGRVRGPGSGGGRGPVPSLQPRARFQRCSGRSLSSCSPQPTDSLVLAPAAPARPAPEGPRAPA

[3] = molecular target: T3, UT receptors in HSMM (Human Skeletal Muscle Myoblasts) (Homo sapiens, UniProt Q9UKP6); test: Human Radioligand Binding Assay ((^125I)-U-II binding to intact HSMM)
T3 sequence (Q9UKP6 1-389): T2 sequence (Q9UKP6 1-389)

[4] = read-out: Human UII Average Binding Ki, intact HSMM, 0.150 nM (^125I)-U-II, 3 h, 25° C.

Row | pIC50 [1] | pIC50 [2] | pKi [3] | SMILES | pKi [3, 4]
1 | 7.24 | 5.80 | 6.76 | CCN1CCN(c2cccc3c2CN([C@H](CCCn2ncnn2)c2ccc(OC)c(OC)c2)C3=O)CC1 [Cpd 15, 2-[(1R)-1-(3,4-dimethoxy-phenyl)-4-tetrazol-2-yl-butyl]-4-(4-ethyl-piperazin-1-yl)-2,3-dihydro-isoindol-1-one] | 
2 | 6.86 | 5.62 | < 6.52 | CCN1CCN(c2cccc3c2CN(C(c2cccc(NCc4ccccc4)c2)c2ccc(OC)c(OC)c2)C3=O)CC1 (stereo not drawn) [Cpd 19, 2-[(3-benzylamino-phenyl)-(3,4-dimethoxy-phenyl)-methyl]-4-(4-ethyl-piperazin-1-yl)-2,3-dihydro-isoindol-1-one] | 
3 | 8.70 | 6.75 |  | COc1ccc([C@@H](CCCN(C)S(=O)(=O)c2cccs2)N2Cc3c(cccc3N3CCN(C(C)C)CC3)C2=O)cc1OC [Cpd 8, thiophene-2-sulfonic acid {(4R)-4-(3,4-dimethoxy-phenyl)-4-[4-(4-isopropyl-piperazin-1-yl)-1-oxo-1,3-dihydro-isoindol-2-yl]-butyl}-methyl-amide] | 7.96
4 | 8.22 | 6.77 | 7.47 | CCN1CCN(c2cccc3c2CN([C@H](CCCN(Cc2ccc(F)cc2)C2CC2)c2ccc(OC)c(OC)c2)C3=O)CC1 [Cpd 90, 2-[(1R)-4-[cyclopropyl-(4-fluoro-benzyl)-amino]-1-(3,4-dimethoxy-phenyl)-butyl]-4-(4-ethyl-piperazin-1-yl)-2,3-dihydro-isoindol-1-one] | 
5 | 7.85 | 6.42 | 7.25 | CCN1CCN(c2cccc3c2CN([C@H](CCCn2cnc4ccccc42)c2ccc(OC)c(OC)c2)C3=O)CC1 [Cpd 29, 2-[(1R)-4-benzoimidazol-1-yl-1-(3,4-dimethoxy-phenyl)-butyl]-4-(4-ethyl-piperazin-1-yl)-2,3-dihydro-isoindol-1-one] | 
6 | 8.10 | 7.01 | 7.27 | CCN1CCN(c2cccc3c2CN([C@H](CCCNS(=O)(=O)N(C)C)c2ccc(OC)c(OC)c2)C3=O)CC1 [Cpd 70, dimethylaminosulfonic acid {(4R)-4-(3,4-dimethoxy-phenyl)-4-[4-(4-ethyl-piperazin-1-yl)-1-oxo-1,3-dihydro-isoindol-2-yl]-butyl}-amide] | 
7 | 7.82 | 6.82 | 7.16 | CCN1CCN(c2cccc3c2CN([C@H](CCCN(Cc2ccccc2)C(C)C)c2ccc(OC)c(OC)c2)C3=O)CC1 [Cpd 96, 2-[(1R)-4-(benzyl-isopropyl-amino)-1-(3,4-dimethoxy-phenyl)-butyl]-4-(4-ethyl-piperazin-1-yl)-2,3-dihydro-isoindol-1-one] | 
8 | 6.85 | 5.85 | 6.80 | CCN1CCN(c2cccc3c2CN([C@H](CCCn2ccnc2C)c2ccc(OC)c(OC)c2)C3=O)CC1 [Cpd 103, 2-[(1R)-1-(3,4-dimethoxy-phenyl)-4-(2-methyl-imidazol-1-yl)-butyl]-4-(4-ethyl-piperazin-1-yl)-2,3-dihydro-isoindol-1-one] | 
9 | 7.16 | 6.07 | 7.54 | CCN1CCN(c2cccc3c2CN([C@H](CCCNC(=O)c2ccnnc2)c2ccc(OC)c(OC)c2)C3=O)CC1 [Cpd 61, pyridazine-4-carboxylic acid {(4R)-4-(3,4-dimethoxy-phenyl)-4-[4-(4-ethyl-piperazin-1-yl)-1-oxo-1,3-dihydro-isoindol-2-yl]-butyl}-amide] | 
10 | 6.61 | 6.04 | 7.31 | CCN1CCN(c2cccc3c2CN([C@H](CCCNC(=O)c2cn(C)cn2)c2ccc(OC)c(OC)c2)C3=O)CC1 [Cpd 57, 1-methyl-1H-imidazole-4-carboxylic acid {(4R)-4-(3,4-dimethoxy-phenyl)-4-[4-(4-ethyl-piperazin-1-yl)-1-oxo-1,3-dihydro-isoindol-2-yl]-butyl}-amide] | 
11 | 6.73 | 5.55 | < 6.52 | CC[N+]1(C)CCN(c2cccc3c2CN([C@H](CCCN(Cc2ccccc2)Cc2ccccc2)c2ccc(OC)c(OC)c2)C3=O)CC1 [Cpd 38, 4-{2-[(1R)-4-dibenzylamino-1-(3,4-dimethoxy-phenyl)-butyl]-1-oxo-2,3-dihydro-1H-isoindol-4-yl}-1-ethyl-1-methyl-piperazin-1-ium] | 
12 | 7.66 | 6.35 | 6.78 | COc1ccc([C@@H](CCCOCc2ccccc2)N2Cc3c(cccc3N3CCNCC3)C2=O)cc1OC [Cpd 41, 2-[(1R)-4-benzyloxy-1-(3,4-dimethoxy-phenyl)-butyl]-4-piperazin-1-yl-2,3-dihydro-isoindol-1-one] | 

Second part, the compound before the results:

Row | SMILES | pIC50 [1] | pIC50 [2] | pKi [3] | pKi [3, 4]
13 | CCN1CCN(c2cccc3c2CN([C@H](CCCNc2nc(C)cc(C)n2)c2ccc(OC)c(OC)c2)C3=O)CC1 [Cpd 12, 2-[(1R)-1-(3,4-dimethoxy-phenyl)-4-(4,6-dimethyl-pyrimidin-2-ylamino)-butyl]-4-(4-ethyl-piperazin-1-yl)-2,3-dihydro-isoindol-1-one] | 7.92 | 6.07 | 7.27 | 
14 | CCN1CCN(c2cccc3c2CN(C(CC2CCN(S(=O)(=O)c4cccs4)CC2)c2ccc(OC)c(OC)c2)C3=O)CC1 (stereo not drawn) [Cpd 18, 2-{1-(3,4-dimethoxy-phenyl)-2-[1-(thiophene-2-sulfonyl)-piperidin-4-yl]-ethyl}-4-(4-ethyl-piperazin-1-yl)-2,3-dihydro-isoindol-1-one] | 8.05 | 6.18 | 7.72 | 
15 | COc1ccc([C@@H](CCCNc2nccc(C(F)(F)F)n2)N2Cc3c(cccc3N3CCN(Cc4ccccc4)CC3)C2=O)cc1OC [Cpd 5, 4-(4-benzyl-piperazin-1-yl)-2-[(1R)-1-(3,4-dimethoxy-phenyl)-4-(4-trifluoromethyl-pyrimidin-2-ylamino)-butyl]-2,3-dihydro-isoindol-1-one] | 7.80 | 6.07 | 7.35 | 
16 | CCN1CCN(c2cccc3c2CN([C@H](CCCNc2nccc(C(F)(F)F)n2)c2ccc(OC)c(OC)c2)C3=O)CC1 [Cpd 22, 2-[(1R)-1-(3,4-dimethoxy-phenyl)-4-(4-trifluoromethyl-pyrimidin-2-ylamino)-butyl]-4-(4-ethyl-piperazin-1-yl)-2,3-dihydro-isoindol-1-one] | 8.52 | 6.73 | 7.89 | 
17 | CCN1CCN(c2cccc3c2CN([C@H](CCCNC(=O)c2c(C)n[nH]c2C)c2ccc(OC)c(OC)c2)C3=O)CC1 [Cpd 60, 3,5-dimethyl-1H-pyrazole-4-carboxylic acid {(4R)-4-(3,4-dimethoxy-phenyl)-4-[4-(4-ethyl-piperazin-1-yl)-1-oxo-1,3-dihydro-isoindol-2-yl]-butyl}-amide] | 7.80 | 6.89 |  | 7.96
18 | CCN1CCN(c2cccc3c2CN([C@H](CCCNC(=O)C(F)(F)F)c2ccc(OC)c(OC)c2)C3=O)CC1 [Cpd 67, N-{(4R)-4-(3,4-dimethoxy-phenyl)-4-[4-(4-ethyl-piperazin-1-yl)-1-oxo-1,3-dihydro-isoindol-2-yl]-butyl}-2,2,2-trifluoro-acetamide] | 7.30 | 6.06 | 7.37 | 
19 | CCN1CCN(c2cccc3c2CN(C(CC2CCN(S(=O)(=O)O)CC2)c2ccc(OC)c(OC)c2)C3=O)CC1 (stereo not drawn) [Cpd 17, 4-{2-(3,4-dimethoxy-phenyl)-2-[4-(4-ethyl-piperazin-1-yl)-1-oxo-1,3-dihydro-isoindol-2-yl]-ethyl}-piperidine-1-sulfonic acid] | 6.47 | 6.18 | 7.13 | 
20 | CCN1CCN(c2cccc3c2CN([C@H](CCCNc2nc(OC)cc(OC)n2)c2ccc(OC)c(OC)c2)C3=O)CC1 [Cpd 10, 2-[(1R)-1-(3,4-dimethoxy-phenyl)-4-(4,6-dimethoxy-pyrimidin-2-ylamino)-butyl]-4-(4-ethyl-piperazin-1-yl)-2,3-dihydro-isoindol-1-one] | 8.40 | 6.21 | 7.09 | 
21 | CCN1CCN(c2cccc3c2CN([C@H](CCCNS(=O)(=O)c2cnc(C)n2C)c2ccc(OC)c(OC)c2)C3=O)CC1 [Cpd 49, 2,3-dimethyl-3H-imidazole-4-sulfonic acid {(4R)-4-(3,4-dimethoxy-phenyl)-4-[4-(4-ethyl-piperazin-1-yl)-1-oxo-1,3-dihydro-isoindol-2-yl]-butyl}-amide] | 8.70 | 7.19 | 7.89 | 
